The subject of one series is Neutrophils. The series can be described thus: Myelosuppression (reduction of neutrophils) by NAT-2 genotype in patients. Format: in vivo, human. The protocol: Thirty-two (32) patients were treated amonafide dihydrochloride. Sixteen (16) were male and sixteen (16) were female. The mean age was 65 years. The dose schedule was days 1, 8, 15 and thereafter every 28 days. The dosages ranged from 300 to 500 mg/m^2 in a dose escalation studied to determine dose limiting toxicity (DLT).
Patients were genotyped to determine their NAT-2 (N-acetyl transferase) genotype. See D. W. Hein, et al., “Molecular Genetics and Epidemiology of the NAT1 and NAT2 Acetylation Polymorphisms,” Cancer Epidemiology, Biomarkers & Prevention Vol. 9, 29-42, January 2000.

Series [1] is described as follows: Water solubility of amonafide salts. To be noted: as compared to a monohydrochloride salt. Format: physicochemical.
Series [2] has as its system white blood cell count (WBC). To be noted: patients; cited from earlier work.

Where a name gives a salt, the structure may show the parent alone.

As for `CN(C)CCN1C(=O)c2cccc3cc(N)cc(c23)C1=O` [amonafide dihydrochloride, 5-amino-2-[(dimethylamine)ethyl]-1H-benz[de-]isoquinoline-1,3-(2H)-dione], the “Average % Reduction of Neutrophils” value in the series on Neutrophils (I/R (Fast) genotype, 18 patients, dose 400 mg/m2) is 78%; in the series on Neutrophils (I/R (Fast) genotype, 18 patients, dose 400 mg/m2, listed as amonafide), about 80%; in the series with Neutrophils (S (Slow) genotype, 14 patients, dose 500 mg/m2), 55%. Besides, the solubility in water result in series [1] is “more soluble in water”.

Turning to `CC(=O)Nc1cc2c3c(cccc3c1)C(=O)N(CCN(C)C)C2=O` [acetyl amonafide, N-acetyl amonafide], the “effect on white blood cell count” value in series [2] is listed as “induce leukocytopenia and, in particular, granulocytopenia”.

The values are drawn from patent US20110262383A1, “Naphthalimide Dosing by N-Acetyl Transferase Genotyping” (ChemGenex Pharmaceuticals, Inc., priority 2004, published 2011).
